Test results as given in patent publication US8008094B2, “Methods for analyzing interactions between proteins and sugar chains” (National Institute of Advanced Industrial Science and …, priority 2003, dated 2011).

Experiments:
[1] = system: binding of Cy3-ASF to lectin spots; assay: Inhibition of lectin-sugar chain interaction on lectin array by competitively inhibiting sugar (Example 1); conditions: Cy3-ASF probe, increasing inhibiting sugar concentration
[2] = system: glycoprotein probe derived from mouse brain; assay: Lectin array (40 lectins) with crude brain-derived glycoprotein probe plus inhibiting sugar (Example 7); type: binding; conditions: 10 mM inhibiting sugar added to brain-derived glycoprotein probe, FIG. 14C
Procedure: A glycoprotein sample extracted and purified from mouse liver and a glycoprotein sample extracted and purified from mouse brain were labeled with Cy3 to form probes, then contacted with a lectin array onto which 40 types of lectins were immobilized, and the sugar chain profile of the entire extracted mouse glycoprotein mixture was observed. Next, 10 mM of lactose was added as a competitively inhibiting sugar to the brain-derived glycoprotein probe used in the previous experiment, and the sugar chain profile was observed (FIG. 14C). […] As shown by this experiment, even when using a lectin array for the sugar chain profiling of cruder samples, comparisons and analyses between individuals can be made easier and faster by the combined use of addition experiments that use various inhibiting sugars, and comparison and analysis after narrowing down the obtained data.

SMILES: OC[C@H]1O[C@@H](O[C@H]2[C@H](O)[C@@H](O)C(O)O[C@@H]2CO)[C@H](O)[C@@H](O)[C@H]1O (some centres unmarked) [lactose]
- fluorescence intensity of the spots in the presence of inhibiting sugar [1]: decreases as the concentration of lactose (competitively inhibiting sugar) increases
- change of fluorescence signal pattern due to competitive inhibition [2]: reduction was observed mainly in the signals of lactosamine-recognizing lectins
